From publication PMC10745968 (Molecules, 2023)

How the values were obtained:
Staphylococcus aureus = type: cell-based
Bacillus subtilis = type: cell-based
Escherichia coli = type: cell-based
Salmonella typhi = type: cell-based
Bacillus cereus = type: cell-based
Pseudomonas aeruginosa = type: cell-based
brine shrimp nauplii = settings: in vivo
Aspergillus niger = type: cell-based; settings: 5 days
Aspergillus flavus = type: cell-based; settings: 5 days

## CC[C@H]1OC(=O)[C@H](C)[C@@H](O[C@H]2C[C@@](C)(OC)[C@@H](O)[C@H](C)O2)[C@H](C)[C@@H](O[C@@H]2O[C@H](C)C[C@H](N(C)C)[C@H]2O)[C@](C)(O)C[C@@H](C)CN(C)[C@H](C)[C@@H](O)[C@]1(C)O [Azithromycin, reference compound]
Staphylococcus aureus
  Diameter of Inhibition Zone: ** 17.75 ± 0.3 mm
Bacillus subtilis
  Diameter of Inhibition Zone: ** 18.5 ± 0.3 mm
Escherichia coli
  Diameter of Inhibition Zone: ** 17.25 ± 0.1 mm
Salmonella typhi
  Diameter of Inhibition Zone: ** 18.0 ± 0.2 mm
Bacillus cereus
  Diameter of Inhibition Zone: ** 17.22 ± 0.3 mm
Pseudomonas aeruginosa
  Diameter of Inhibition Zone: ** 18.5 ± 0.3 mm

## CO[C@H]1O[C@H](COC(=O)C=Cc2ccccc2)[C@@H](O)[C@H](O)[C@@H]1O [Compound 2, Methyl 6-O-cinnamoyl-α-D-mannopyranoside]
Staphylococcus aureus
  Diameter of Inhibition Zone: 11.75 ± 0.3 mm
Salmonella typhi
  Diameter of Inhibition Zone: 12.41 ± 0.3 mm
Bacillus cereus
  Diameter of Inhibition Zone: 07.11 ± 0.5 mm
Brine shrimp nauplii
  death rate (brine shrimp): 27.07%

## CCCCCCC(=O)O[C@@H]1[C@H](OC(=O)CCCCCC)[C@@H](OC)O[C@H](COC(=O)C=Cc2ccccc2)[C@H]1OC(=O)CCCCCC [Compound 3, Methyl 2,3,4-tri-O-heptanoyl-6-O-cinnamoyl-α-D-mannopyranoside]
Escherichia coli
  Diameter of Inhibition Zone: 10.25 ± 0.2 mm

## CCCCCCCC(=O)O[C@@H]1[C@H](OC(=O)CCCCCCC)[C@@H](OC)O[C@H](COC(=O)C=Cc2ccccc2)[C@H]1OC(=O)CCCCCCC [Compound 4, Methyl 6-O-cinnamoyl-2,3,4-tri-O-octanoyl-α-D-mannopyranoside]
Aspergillus niger
  % Inhibition of Fungal Mycelial Growth in mm (20 μg/μL): * 96.22 ± 1.1%
Aspergillus flavus
  % Inhibition of Fungal Mycelial Growth in mm (20 μg/μL): * 98.47 ± 1.0%
Bacillus subtilis
  Diameter of Inhibition Zone: 10.51 ± 0.6 mm
Escherichia coli
  Diameter of Inhibition Zone: 11.53 ± 0.2 mm
Salmonella typhi
  Diameter of Inhibition Zone: 10.23 ± 0.5 mm
Brine shrimp nauplii
  death rate (brine shrimp): 36.10-37.03%
Pseudomonas aeruginosa
  Diameter of Inhibition Zone: 09.19 ± 0.6 mm

## CO[C@H]1O[C@H](COC(=O)/C=C/c2ccccc2)[C@@H](OS(=O)(=O)c2ccc(C)cc2)[C@H](OS(=O)(=O)c2ccc(C)cc2)[C@@H]1OS(=O)(=O)c1ccc(C)cc1 [Compound 5, Methyl 2,3,4-tri-O-p-toluenesulfonyl-6-O-cinnamoyl-α-D-mannopyranoside]
Aspergillus niger
  % Inhibition of Fungal Mycelial Growth in mm (20 μg/μL): 57.62 ± 1.1%
Aspergillus flavus
  % Inhibition of Fungal Mycelial Growth in mm (20 μg/μL): * 81.30 ± 1.0%
Bacillus subtilis
  Diameter of Inhibition Zone: 12.15 ± 0.7 mm
Escherichia coli
  Diameter of Inhibition Zone: 9.00 ± 0.2 mm
Bacillus cereus
  Diameter of Inhibition Zone: 08.10 ± 0.3 mm
Pseudomonas aeruginosa
  Diameter of Inhibition Zone: 12.36 ± 0.2 mm

## CO[C@H]1O[C@H](COC(=O)C=Cc2ccccc2)[C@@H](OS(=O)(=O)c2ccccc2)[C@H](OS(=O)(=O)c2ccccc2)[C@@H]1OS(=O)(=O)c1ccccc1 [Compound 6, Methyl 6-O-cinnamoyl-2,3,4-tri-O-benzenesulfonyl-α-D-mannopyranoside]
Bacillus subtilis
  Diameter of Inhibition Zone: 10.13 ± 0.8 mm
Escherichia coli
  Diameter of Inhibition Zone: 9.00 ± 0.3 mm
Salmonella typhi
  Diameter of Inhibition Zone: 9.17 ± 0.1 mm
Brine shrimp nauplii
  death rate (brine shrimp): 36.10-37.03%
Pseudomonas aeruginosa
  Diameter of Inhibition Zone: 8.50 ± 0.2 mm

## C[C@@H]1[C@H](O)[C@@H](C)/C=C/C=C/CC/C=C/C=C/C=C/C=C/C(O[C@H]2O[C@H](C)[C@@H](O)[C@H](N)[C@@H]2O)CC2O[C@](O)(CC(O)C(O)CCC(O)CC(O)CC(O)CC(=O)O[C@H]1C)CC(O)C2C(=O)O (stereo partly shown) [Nystatin, nystatin, reference compound]
Aspergillus niger
  % Inhibition of Fungal Mycelial Growth in mm (20 μg/μL): ** 65.4 ± 1.0%
Aspergillus flavus
  % Inhibition of Fungal Mycelial Growth in mm (20 μg/μL): ** 64.1 ± 1.0%
